What was measured:
Type in all cases: cell-based, human
HiF1α = assay: Western blot analysis; conditions: MCF7/TGL and MDA-MB-231/TGL cells; 250 ppm CO for 16 hours vs standard incubator
Procedure: (§1) 1.5 × 10^6 cells were seeded in 6-cm cell culture plates with DMEM containing 10% FBS, 0.2 mM L-glutamine and 1% penicillin/streptomycin. Additionally, MCF7/TGL/pQ was cultured in media containing 0.5 µgml^-1 puromycin and 25 mM HEPES. After 16 hours of incubation, cells were lysed with RIPA buffer (0.1% SDS, 1% TritonX-100, 0.5% sodium deoxycholate, 25 mM Tris pH 8.0, 150 mM NaCl, and 1 mM EDTA) supplemented with a protease inhibitor mixture and PhosSTOP (Roche, Basel, Switzerland). Proteins were quantified with Bradford assay (Bio-Rad, Hercules CA). Equal amounts of proteins were separated with SDS-PAGE and transferred to nitrocellulose membranes. […] Protein bands were visualized by enhanced chemical luminescence (Pierce, Dallas, TX).
To investigate whether 250 ppm CO induces hypoxia, HiF1α protein levels in low-dose CO-treated MCF7/TGL and MDA-MB-231/TGL cells were examined. […] To assess the intracellular heme levels affected by low-dose CO treatment, oxidized heme levels in the form of hemin (Fe^3+ state) were measured because free heme (Fe^2+ state) is readily oxidized and cannot be measured. […]

Bach 1 = assay: Western blot analysis; conditions: two breast cancer cell lines (MCF7, MDA-MB-231); 250 ppm CO
Procedure: as §1
(§2) To investigate how CO reduces heme levels, whether CO decreased the transportation of heme into the cytosol was examined. […] Likewise, changes in protein levels of Bach 1 (a physiological repressor of HO-1 and a pro-metastatic transcription factor, whose degradation is reported to be mediated by heme in Nrf2-mutated lung cancer) was not detected (FIG. 4E). […]

HO-1 = assay: Western blot analysis; conditions: two breast cancer cell lines (MCF7, MDA-MB-231); 250 ppm CO
Procedure: as §1, §2

CYP1B1 = assay: Western blot analysis; conditions: 250 ppm CO
Procedure: 1.5 × 10^6 cells were seeded in 6-cm cell culture plates with DMEM containing 10% FBS, 0.2 mM L-glutamine and 1% penicillin/streptomycin. Additionally, MCF7/TGL/pQ was cultured in media containing 0.5 µgml^-1 puromycin and 25 mM HEPES. After 16 hours of incubation, cells were lysed with RIPA buffer (0.1% SDS, 1% TritonX-100, 0.5% sodium deoxycholate, 25 mM Tris pH 8.0, 150 mM NaCl, and 1 mM EDTA) supplemented with a protease inhibitor mixture and PhosSTOP (Roche, Basel, Switzerland). Proteins were quantified with Bradford assay (Bio-Rad, Hercules CA). Equal amounts of proteins were separated with SDS-PAGE and transferred to nitrocellulose membranes. To visualize equal protein loading, blots were stained with Ponceau S. Blots were incubated in 5% non-fat milk in TBST, probed with primary antibodies to CYP1B1 (1:1,000, Abcam, Cambridge, United Kingdom, Cat. No. 32649), HO-1 (1:1,000, Santa Cruz Biotechnology, Dallas, TX, Cat. No. 136960), BACH1 (1:1,000, ABclonal, Woburn, MA, Cat. No. A5393), E-cadherin (1:1,1000, BD Biosciences (Cat. No. 610181), San Jose, CA), α-tubulin (1:1,000, Sigma (Cat. No. T5168), St. Louis MO), and vimentin (1:1,000, Cell Signaling Tech (Cat. No. 5741), Danvers, MA), and then were incubated with horseradish peroxidase-conjugated secondary antibodies. Protein bands were visualized by enhanced chemical luminescence (Pierce, Dallas, TX). […]

FLVCR1 = assay: expression of heme exporter; conditions: MCF7/TGL and MDA-MB-231/TGL cells; with or without 250 ppm CO
Description: To investigate how CO reduces heme levels, whether CO decreased the transportation of heme into the cytosol was examined. […] Furthermore, heme oxygenases (HO-1, HO-2, and HO-3) cleave heme into 3 products: CO, ferrous ions (Fe2+), and biliverdin. […] So, whether there was an increase of HO-1 expression by low-dose CO treatment that could contribute to heme degradation was examined. […] Likewise, changes in protein levels of Bach 1 (a physiological repressor of HO-1 and a pro-metastatic transcription factor, whose degradation is reported to be mediated by heme in Nrf2-mutated lung cancer) was not detected (FIG. 4E). […] Taken together, CO decreased heme importers to lower intracellular heme levels, which inhibited cancer cell migration.

[1] = tested on: oxygen consumption / mitochondrial respiration; assay: Seahorse XF Cell Mito Stress Test
Description: In particular, MDA-MB-231/TGL and MCF7/TGL/PQ cells treated with carbon monoxide met their energetic needs at the same rate as untreated control cells. […] In particular, MDA-MB-231/TGL and MCF7/TGL/PQ cells treated with carbon monoxide stimulated their mitochondrial respiratory chains at the same rate as untreated control cells.
The heme group confers functionality to multiple proteins, which can include oxygen carrying, oxygen reduction, electron transfer, and other processes. To determine whether the decrease of heme levels impacts levels of oxygen-utilizing hemoproteins and therefore reduces oxygen consumption, oxygen consumption rates (OCR) was measured. However, lower OCR after 16 hours in 250 ppm CO was not detected using Seahorse XF Cell Mito Stress Tests in MCF7 and MDA-MB-231 (data not shown).

[2] = MDA-MB-231 and MCF7 cells, low dose carbon monoxide

## [C-]#[O+] [CO, Carbon monoxide]
HiF1α
  HiF1α protein levels: not changed
Bach 1
  changes in protein levels of Bach 1: not detected
HO-1
  increase of HO-1 expression: not detected
CYP1B1; MCF7 and MDA-MB-231 cells
  CYP1B1 protein levels: significantly reduced
CYP1B1; PDAC 8988T cells
  CYP1B1 protein levels: reduced
FLVCR1
  FLVCR1 (heme exporter) expression: no significant/consistent changes
[1]; MCF7 and MDA-MB-231, after 16 hours in 250 ppm CO, data not shown
  lower oxygen consumption rates (OCR): not detected
[1]; MDA-MB-231 and MCF7 cells, carbon monoxide treatment
  mitochondrial spare respiratory capacity: improved
[1]; [2]
  mitochondrial ATP production: did not affect
  stress-induced mitochondrial maximum respiration: did not affect

Reference: patent US20230346831A1, “METHODS FOR TREATING […] USING LOW DOSE CARBON MONOXIDE” (priority 2020, published 2023)
